Measured values: US10196363B2, “Dihydropyrimidin-2-one compounds and medical use thereof” (JAPAN TOBACCO INC., priority 2014, dated 2019)
pEC50: −log10 of the molar value. Like-named read-outs stand apart in the source and are kept apart here.

Tests used:
[1] = target: T1, human RORγ (Homo sapiens, UniProt P51449); assay: In vitro assay of inhibitory effect against RORγ transcriptional activity (GAL4-hRORγ LBD luciferase reporter gene assay in CHO cells); format: cell-based; conditions: for hRORγ luciferase activity, %-of-control: vehicle-control 0.2% DMSO alone = 100%
T1 construct: human RORγ, from Ser253 to Lys518; expressed in transfected cells; host or cells: CHO cells (Chinese hamster ovary), transient co-transfection with pG5-Luc
T1 sequence (P51449 253-518): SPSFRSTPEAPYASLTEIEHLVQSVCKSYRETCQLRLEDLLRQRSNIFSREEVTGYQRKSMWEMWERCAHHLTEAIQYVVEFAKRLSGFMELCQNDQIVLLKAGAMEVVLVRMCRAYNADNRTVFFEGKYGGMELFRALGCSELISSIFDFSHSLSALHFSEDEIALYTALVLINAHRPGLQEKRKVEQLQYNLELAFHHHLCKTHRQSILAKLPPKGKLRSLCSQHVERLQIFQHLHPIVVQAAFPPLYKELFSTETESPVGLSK
Summary of the method: (§1)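 CHO cells were transiently co-transfected with a GAL4-DBD fusion of the human (Ser253–Lys518) or mouse (Ile251–Lys516) RORγ LBD plus a GAL4-luciferase reporter. Cells were treated with 8 compound concentrations (0.2% DMSO) for 2 days at 37 °C. Luciferase was expressed as %-of-vehicle control, EC50 was curve-fitted, and cytotoxic concentrations were excluded.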

[2] = target: T2, mouse RORγ (Mus musculus, UniProt P51450); assay: In vitro assay of inhibitory effect against RORγ transcriptional activity (GAL4-mRORγ LBD luciferase reporter gene assay in CHO cells); format: cell-based; conditions: for mRORγ luciferase activity, %-of-control: vehicle-control 0.2% DMSO alone = 100%
T2 construct: mouse RORγ, from Ile251 to Lys516; expressed in transfected cells; host or cells: CHO cells (Chinese hamster ovary), transient co-transfection with pG5-Luc
T2 sequence (P51450 251-516): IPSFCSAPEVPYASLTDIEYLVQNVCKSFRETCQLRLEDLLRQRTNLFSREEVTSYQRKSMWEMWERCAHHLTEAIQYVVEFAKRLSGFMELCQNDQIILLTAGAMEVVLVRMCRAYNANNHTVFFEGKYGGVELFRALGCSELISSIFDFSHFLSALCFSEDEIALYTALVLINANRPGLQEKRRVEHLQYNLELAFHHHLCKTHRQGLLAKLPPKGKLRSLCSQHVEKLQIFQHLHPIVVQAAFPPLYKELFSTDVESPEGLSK
Summary of the method: as §1

[3] = GAL4-hRORγ LBD luciferase reporter, CHO cells, read-out: LUC EC50 hRORγ
[4] = GAL4-mRORγ LBD luciferase reporter, CHO cells, read-out: LUC EC50 mRORγ
[5] = GAL4-hRORγ LBD / pG5-Luc in CHO cells, 2 days incubation
[6] = GAL4-mRORγ LBD / pG5-Luc in CHO cells, 2 days incubation
[7] = value in parentheses beside the EC50 bound
[8] = value in parentheses beside the > EC50 bound

Compound	pEC50 [1, 3]	pEC50 [2, 4]	pEC50 [1, 5]	pEC50 [2, 6]	also measured
CC(C)C1=CN(c2ccc(F)c(C(=O)O)c2)C(=O)N[C@@]1(C)c1ccc(CCC(C)(C)C)c(Cl)c1 [Example 208]	7.68	7.40			
CC1(C)CC=C(c2ccc([C@]3(C)NC(=O)N(CCC(=O)O)C=C3C3CC3)cc2Cl)CC1 [Example 321]	7.22	7.32			
COCCN1C=C(c2cncc(C(=O)O)c2)[C@](C)(c2ccc(CCC(C)(C)C)c(Cl)c2)NC1=O [Example 275]	6.27	5.92			
COC(=O)[C@H]1C[C@H](N2C=C(C(C)(C)CCCO)[C@](C)(c3ccc(CCC(C)(C)C)c(Cl)c3)NC2=O)C1 (single isomer, unassigned) [Example 191]	7.35	7.15			
CC(C)C1=CN(CCCC(=O)O)C(=O)NC1(C)c1ccc(CCC(C)(C)C)cc1 (racemic) [Example 26]			6.44	6.66	
COCCN1C=C(c2cccc(C(=O)O)c2)[C@](C)(c2ccc(CCC(C)(C)C)c(Cl)c2)NC1=O [Example 273]	7.60	7.12			
CC(C)(C)CCc1ccc([C@]2(C)NC(=O)N(CCC(=O)O)C=C2C2CC(C)(C)OC(C)(C)C2)cc1Cl [Example 284]	5.56	5.82			
CC(C)C1=CN(C23CC(C(=O)O)(C2)C3)C(=O)N[C@@]1(C)c1ccc(CCC(C)(C)C)c(Cl)c1 [Example 77]			7.82	7.62	
COCCC1=CN(c2ccc(C(=O)O)c(OC)c2)C(=O)N[C@@]1(C)c1ccc(C2=CCC(C)(C)CC2)c(Cl)c1 [Example 333]	7.64	7.89			
CC(C)C1=CN(CCCCC(=O)O)C(=O)NC1(C)c1ccc(OCC(C)(C)C)c(Cl)c1 (racemic) [Example 18]			7.29	7.55	
CC(C)C1=CN(CCC(=O)O)C(=O)N[C@@]1(C)c1ccc(C2CC2C(C)(C)C)c(Cl)c1 (single isomer, unassigned) [Example 170]			7.24	7.40	
CC(C)C[S+]([O-])c1ccc([C@]2(C)NC(=O)N(CCC(=O)O)C=C2C(C)C)cc1Cl (mixture of isomers) [Example 215]	< 4.70	< 4.70			hRORγ luciferase activity, %-of-control [1, 7]: (77%); mRORγ luciferase activity, %-of-control [2, 7]: (70%)
CC(C)(C)CCc1ccc(C2(C)NC(=O)N(C3CCC3)C=C2C(C)(C)CCC(=O)O)cc1Cl (single isomer, unassigned) [Example 184]			7.96	7.66	
CC(C)C1=CN(CCC(=O)O)C(=O)N[C@@]1(C)c1ccc(CCC(C)(C)C)c(Cl)c1 [Example 87, 3-{(S)-4-[3-Chloro-4-(3,3-dimethyl-butyl)-phenyl]-5-isopropyl-4-methyl-2-oxo-3,4-dihydro-2H-pyrimidin-1-yl}-propionic Acid]			7.96	7.82	
CC(C)(C)CCc1ccc([C@]2(C)NC(=O)N(C34CC(C(=O)O)(C3)C4)C=C2C2CC(F)(F)C2)cc1C(F)(F)F [Example 341]	7.17	7.49			
CC(C)C1=CN(C23CC(C(=O)O)(C2)C3)C(=O)N[C@@]1(C)c1ccc(CCC(C)(C)C)c(Cl)c1 [Example 186]			7.04	6.94	
C=C(C)C1=CN(CCC(=O)O)C(=O)N[C@@]1(C)c1ccc(CCC(C)(C)C)c(Cl)c1 [Example 292]	7.05	7.14			
CC(C)C1=CN(CC(C)(C)CC(=O)O)C(=O)N[C@]1(C)c1ccc(CCC(C)(C)C)c(Cl)c1 [Example 35]			< 5.49	< 5.49	hRORγ luciferase activity, %-of-control [1, 8]: (51%); mRORγ luciferase activity, %-of-control [2, 8]: (52%)
CC(C)C1=CN(CCC(=O)O)C(=O)N[C@@]1(C)c1cc(F)c(/C=C/C(C)(C)C)c(Cl)c1 [Example 189]			7.52	7.66	

Compound	pEC50 [1, 3]	pEC50 [2, 4]	pEC50 [1, 5]	pEC50 [2, 6]	also measured
CC(C)(C)C#Cc1ccc(C2NC(=O)N(CCCC(=O)O)C=C2C(C)(C)C)cc1Cl (racemic) [Example 187]			6.76	7.20	
CC(C)(C)COc1ccc([C@]2(C)NC(=O)N(c3ccc(C(=O)O)cc3)C=C2C2CC(F)(F)C2)cc1Cl [Example 353]	7.23	7.35			
CC(C)C1=CN(CC(C)C(=O)O)C(=O)N[C@@]1(C)c1ccc(CCC(C)(C)C)c(Cl)c1 (single isomer, unassigned) [Example 300]	8.00	7.85			
COCCC1=CN(C23CCC(C(=O)O)(C2)C3)C(=O)N[C@@]1(C)c1ccc([C@H]2C[C@@H](C(C)C)C2)c(Cl)c1 [Example 330]	7.72	7.85			
CC(C)C1=CN(CCc2ccccc2C(=O)O)C(=O)N[C@@]1(C)c1ccc(CCC(C)(C)C)c(Cl)c1 [Example 83]			7.40	7.37	
CC(C)C1=CN(CCC(=O)O)C(=O)N[C@]1(C)c1ccc(CCc2ccccc2)c(Cl)c1 [Example 143]			< 5.10	< 5.10	hRORγ luciferase activity, %-of-control [1, 8]: (90%); mRORγ luciferase activity, %-of-control [2, 8]: (100%)
CC(C)C1=CN(CCC(=O)O)C(=O)N[C@@]1(C)c1ccc(C=C2CCOCC2)c(Cl)c1 [Example 289]	5.95	6.11			
CC(C)C1=CN([C@H]2CC[C@H](CC(=O)O)CC2)C(=O)N[C@@]1(C)c1ccc(CCC(C)(C)C)c(Cl)c1 [Example 262]	7.66	7.66			
CC(C)(C)CCc1ccc([C@]2(C)NC(=O)N([C@H]3C[C@H](C(=O)O)C3)C=C2C2CCOCC2)cc1Cl [Example 100]			7.70	7.46	
CC(C)C1=CN(CCC(C)(C)C(=O)O)C(=O)N[C@@]1(C)c1ccc(CCC(C)(C)C)c(Cl)c1 [Example 55]			7.66	7.59	
CC(C)C1=CN(CCc2ccc(C(=O)O)cc2)C(=O)N[C@@]1(C)c1ccc(CCC(C)(C)C)c(Cl)c1 [Example 50]			8.15	7.89	
CC(C)C1=CN([C@H](C)CC(=O)O)C(=O)N[C@@]1(C)c1ccc(CCC(C)(C)C)c(Cl)c1 [Example 236]	7.70	7.82			
COCCC1=CN(C23CCC(C(=O)O)(C2)C3)C(=O)N[C@@]1(C)c1ccc(CCC(C)(C)C)c(Cl)c1 [Example 274]	8.10	8.10			
CC(C)C1=CN(CCC(=O)O)C(=O)N[C@@]1(C)c1ccc(OCCC(C)(C)C)c(Cl)c1 [Example 125]			> 7.49	> 7.49	
CC(C)(C)CCc1ccc([C@@]2(C)NC(=O)N(CCCC(=O)O)C=C2C2CCOCC2)cc1Cl [Example 91]			6.27	5.94	
CC(C)C1=CN([C@@H]2CCCC[C@H]2C(=O)O)C(=O)N[C@@]1(C)c1ccc(CCC(C)(C)C)c(Cl)c1 [Example 235]	< 5.49	5.79			hRORγ luciferase activity, %-of-control [1, 7]: (70%)
COCC(C)C1=CN(c2ccc(C(=O)O)cc2)C(=O)N[C@@]1(C)c1ccc(CCC(C)(C)C)c(Cl)c1 (single isomer, unassigned) [Example 307]	8.30	7.89			
CC(C)(C)CCc1ccc([C@]2(C)NC(=O)N(CCCC(=O)O)C=C2C2CCOCC2)cc1Cl [Example 92]			7.89	7.70	
CC(C)(C)CCc1ccc([C@]2(C)NC(=O)N(C3CC(C)(C)C3)C=C2[C@H]2C[C@@H](C(=O)O)C2)cc1Cl [Example 251]	7.89	7.55			
